Measured values published in patent US20240254119A1 (THIRD HARMONIC BIO, INC., priority 2022, published 2024).

Experiments:
[1] = molecular target: T1, PDGFRα (Homo sapiens, UniProt P16234); assay: Caliper biochemical assay, PDGFRα; conditions: Table 6
T1 construct: purchased Millipore 14-467 (lot 26321_ACTI)
Description: (§1) Enzyme, substrate, and cofactors (ATP and Mn^2+) are combined in a well of a microtiter plate and incubated for 3 hours at 25° C. At the end of the incubation, the reaction is quenched by the addition of an EDTA-containing buffer. Substrate and product are separated electrophoretically using the microfluidic-based LabChip 3000 Drug Discovery System from Caliper Life Sciences* and quantitated by fluorescence intensity.
(§2) The substrate used in the CSF-1R and PDGFRα assay is FAM-[…]-CONH2 (FAM is carboxyfluorescein). Peptide should be >95% purity. The substrate for the KIT assay is FAM-[…]-NH2.
(§3) • 1. To a well of a 384-well plate add 5 μL of 2× enzyme buffer (or control) • 2. Add 100 nL of 100× compound. • 3. Add 5 μL of 2× substrate buffer. • 4. Incubate plate at 25° C. for 3 hours. • 5. Add 10 uL of […]. • 6. Read plate LabChip 3000 Drug Discovery System
(§4) • 3 hours at 25° C. where 100% Inhibitor: No enzyme.

[2] = molecular target: T2, CSF-1R (Homo sapiens, UniProt P07333); assay: Caliper biochemical assay, CSF-1R; conditions: Table 6
T2 construct: purchased Invitrogen PV3249 (lot 662393N)
T2 sequence (P07333 20-972): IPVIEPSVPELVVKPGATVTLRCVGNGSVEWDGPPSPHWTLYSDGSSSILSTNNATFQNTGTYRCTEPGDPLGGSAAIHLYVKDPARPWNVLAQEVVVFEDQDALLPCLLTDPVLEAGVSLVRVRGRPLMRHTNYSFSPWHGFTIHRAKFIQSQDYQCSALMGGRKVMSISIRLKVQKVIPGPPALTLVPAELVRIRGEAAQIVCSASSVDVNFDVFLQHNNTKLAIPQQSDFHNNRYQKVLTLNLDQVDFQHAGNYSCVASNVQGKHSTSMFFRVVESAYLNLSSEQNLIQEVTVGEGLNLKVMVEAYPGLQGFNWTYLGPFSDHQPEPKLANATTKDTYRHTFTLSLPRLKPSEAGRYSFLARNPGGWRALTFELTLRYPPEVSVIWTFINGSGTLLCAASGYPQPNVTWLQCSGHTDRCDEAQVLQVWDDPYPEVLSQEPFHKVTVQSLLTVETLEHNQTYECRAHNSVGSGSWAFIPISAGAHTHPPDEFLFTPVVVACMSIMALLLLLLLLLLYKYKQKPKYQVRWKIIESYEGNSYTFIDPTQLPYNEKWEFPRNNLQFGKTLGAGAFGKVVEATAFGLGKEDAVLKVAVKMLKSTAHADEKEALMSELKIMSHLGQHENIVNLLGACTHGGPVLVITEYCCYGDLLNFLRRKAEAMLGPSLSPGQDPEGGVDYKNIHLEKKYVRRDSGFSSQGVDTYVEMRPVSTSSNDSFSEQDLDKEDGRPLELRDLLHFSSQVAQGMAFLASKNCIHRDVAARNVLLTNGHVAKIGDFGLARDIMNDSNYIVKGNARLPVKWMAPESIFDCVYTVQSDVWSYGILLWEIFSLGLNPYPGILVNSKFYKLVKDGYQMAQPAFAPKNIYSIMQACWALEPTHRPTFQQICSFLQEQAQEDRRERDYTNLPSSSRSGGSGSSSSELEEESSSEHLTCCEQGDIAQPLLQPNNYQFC
Description: as §1, §2, §3, §4

[3] = molecular target: T3, wtKIT (Homo sapiens, UniProt P10721); assay: Caliper biochemical assay, wtKIT; conditions: Table 6, read-out: KIT Biochemical IC50 avg
T3 construct: 1888289AM in the reaction mixtures
T3 sequence (P10721 26-976): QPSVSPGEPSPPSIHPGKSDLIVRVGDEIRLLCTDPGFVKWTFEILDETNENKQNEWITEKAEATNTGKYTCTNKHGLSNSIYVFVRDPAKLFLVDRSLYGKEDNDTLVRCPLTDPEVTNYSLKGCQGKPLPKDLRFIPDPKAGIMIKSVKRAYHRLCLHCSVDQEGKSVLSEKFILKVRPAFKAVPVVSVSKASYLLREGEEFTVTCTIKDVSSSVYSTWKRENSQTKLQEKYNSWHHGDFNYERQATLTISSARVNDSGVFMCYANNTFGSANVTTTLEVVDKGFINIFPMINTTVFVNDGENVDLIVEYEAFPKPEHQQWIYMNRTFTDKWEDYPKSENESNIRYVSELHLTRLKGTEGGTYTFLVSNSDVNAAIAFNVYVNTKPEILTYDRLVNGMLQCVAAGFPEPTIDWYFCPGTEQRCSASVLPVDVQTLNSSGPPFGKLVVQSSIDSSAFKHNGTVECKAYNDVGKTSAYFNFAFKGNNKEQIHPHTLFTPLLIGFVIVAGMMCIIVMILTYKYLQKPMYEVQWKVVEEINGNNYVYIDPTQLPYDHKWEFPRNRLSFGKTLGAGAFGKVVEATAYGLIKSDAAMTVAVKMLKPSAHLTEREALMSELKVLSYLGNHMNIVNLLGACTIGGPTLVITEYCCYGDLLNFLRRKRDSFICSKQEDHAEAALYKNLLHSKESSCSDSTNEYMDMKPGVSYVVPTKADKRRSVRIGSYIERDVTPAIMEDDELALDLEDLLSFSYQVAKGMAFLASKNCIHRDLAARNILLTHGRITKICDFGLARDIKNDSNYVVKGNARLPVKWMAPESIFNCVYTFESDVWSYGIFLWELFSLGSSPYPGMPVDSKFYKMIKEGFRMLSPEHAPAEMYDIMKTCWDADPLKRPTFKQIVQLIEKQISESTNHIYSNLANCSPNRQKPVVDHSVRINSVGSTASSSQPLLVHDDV
How it was run: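 Mobility-shift read-out: after EDTA stop, fluorescent peptide substrate and product resolved electrophoretically on LabChip 3000. Reaction ran 3 h at 25° C with 400 μM ATP, Mn^2+ cofactor, 5.0 nM wtKIT, 1 μM FAM-peptide, pH 7.5 HEPES buffer; no-enzyme wells defined full inhibition.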

[4] = molecular target: T4, BCRP (BCRP-MDCKII monolayer) (Homo sapiens, UniProt Q9UNQ0); assay: MDCKII-BCRP bidirectional transport assay; format: in vitro ADME; conditions: for MDCK-BCRP: Papp A-B: apical to basolateral
T4 construct: host or cells: MDCKII (canine kidney) cells
T4 sequence (Q9UNQ0 1-655): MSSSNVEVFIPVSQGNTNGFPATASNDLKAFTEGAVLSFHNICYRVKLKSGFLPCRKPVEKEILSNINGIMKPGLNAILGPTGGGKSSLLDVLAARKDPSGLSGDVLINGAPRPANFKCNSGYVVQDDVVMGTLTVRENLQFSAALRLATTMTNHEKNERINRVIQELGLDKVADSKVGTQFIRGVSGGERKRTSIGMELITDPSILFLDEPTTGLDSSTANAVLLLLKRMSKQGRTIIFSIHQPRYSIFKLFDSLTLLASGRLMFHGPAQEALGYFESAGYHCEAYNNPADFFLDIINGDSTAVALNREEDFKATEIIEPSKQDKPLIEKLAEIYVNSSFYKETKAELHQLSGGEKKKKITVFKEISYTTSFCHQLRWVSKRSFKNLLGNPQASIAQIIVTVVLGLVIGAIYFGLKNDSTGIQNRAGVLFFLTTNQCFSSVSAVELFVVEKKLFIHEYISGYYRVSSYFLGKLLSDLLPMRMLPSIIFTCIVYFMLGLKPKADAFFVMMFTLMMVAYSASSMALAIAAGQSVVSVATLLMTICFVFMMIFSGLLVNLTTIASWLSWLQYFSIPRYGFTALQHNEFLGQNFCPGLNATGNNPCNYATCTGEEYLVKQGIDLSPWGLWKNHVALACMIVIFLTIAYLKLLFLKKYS
How it was run: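 Efflux ratios were derived from Papp values, alongside recovery, with compounds quantified by LC-MS/MS. Both directions were tested in duplicate across BCRP-MDCKII monolayers used on days 12–15. Incubation ran 120 min at 37° C, 5% CO2, after a 15 min preincubation in assay buffer.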

[5] = Kinetic solubility assay; format: physicochemical; conditions: kinetic solubility, 50 mM PB (pH 7.4), shaken 24 hours at RT
How it was run: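 Concentration in the filtrate was determined by UPLC-UV or HPLC-UV with a standard curve. Before that, compound (10 mM DMSO stock) in 50 mM PB at pH 7.4 was agitated 24 h at room temperature, then PTFE-filtered with centrifugation.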

[6] = molecular target: T3, wtKIT; assay: HTRF biochemical assay, wtKIT (phosphorylation of a peptide substrate); conditions: Table 4
How it was run: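 HTRF read-out of FAM-peptide (1 µM) phosphorylation after anti-phosphotyrosine antibody addition and EDTA quench. Reaction: 5.0 nM wtKIT, 400 µM ATP, 10 mM Mn2+, HEPES pH 7.5, 1% DMSO, 3 h, 25 °C; optional enzyme-compound preincubation; enzyme level set for 10-20% conversion.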

T1 sequence (P16234 24-1089): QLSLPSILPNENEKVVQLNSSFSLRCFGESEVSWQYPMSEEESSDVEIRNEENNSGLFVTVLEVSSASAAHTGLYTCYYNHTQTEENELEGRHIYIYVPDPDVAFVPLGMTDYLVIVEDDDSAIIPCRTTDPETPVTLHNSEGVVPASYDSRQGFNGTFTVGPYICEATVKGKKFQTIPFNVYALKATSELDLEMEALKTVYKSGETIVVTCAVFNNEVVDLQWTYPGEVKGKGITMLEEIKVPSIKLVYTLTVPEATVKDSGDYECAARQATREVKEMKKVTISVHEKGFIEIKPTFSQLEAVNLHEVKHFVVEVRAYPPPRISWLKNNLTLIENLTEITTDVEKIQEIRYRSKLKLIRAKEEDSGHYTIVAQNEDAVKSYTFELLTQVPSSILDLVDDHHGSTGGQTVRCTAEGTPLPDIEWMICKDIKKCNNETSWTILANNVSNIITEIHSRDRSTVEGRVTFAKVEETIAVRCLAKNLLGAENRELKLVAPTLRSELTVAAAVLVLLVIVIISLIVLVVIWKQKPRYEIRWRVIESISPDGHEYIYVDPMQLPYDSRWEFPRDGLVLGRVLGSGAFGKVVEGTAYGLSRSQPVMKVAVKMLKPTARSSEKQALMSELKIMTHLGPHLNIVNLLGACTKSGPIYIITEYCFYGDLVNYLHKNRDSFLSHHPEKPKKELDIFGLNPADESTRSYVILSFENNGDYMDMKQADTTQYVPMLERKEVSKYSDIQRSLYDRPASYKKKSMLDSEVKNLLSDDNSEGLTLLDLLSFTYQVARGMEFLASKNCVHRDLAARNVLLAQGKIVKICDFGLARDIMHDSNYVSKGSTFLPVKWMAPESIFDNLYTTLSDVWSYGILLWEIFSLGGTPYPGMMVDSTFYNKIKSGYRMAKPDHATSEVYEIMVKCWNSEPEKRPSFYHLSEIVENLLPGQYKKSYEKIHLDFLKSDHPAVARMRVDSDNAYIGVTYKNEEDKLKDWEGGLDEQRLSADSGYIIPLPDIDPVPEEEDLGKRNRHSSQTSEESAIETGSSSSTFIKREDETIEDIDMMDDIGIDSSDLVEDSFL

Compound	IC50 [1] [nM]	IC50 [2] [nM]	IC50 [3] [nM]	MDCK-BCRP: Efflux Ratio [4]	MDCK-BCRP: Papp A-B [4]	IC50 [6] [nM]	Solubility (μM) [5]
Cc1ccc(-c2noc(C3CCC(F)C3)n2)cc1NC(=O)c1cnc2ccccn12 (racemic) [Compound I-318]	50 to 500	≤ 50	≤ 50	0.93	13.9 10^−6 cm/s		*** (a solubility greater than 2 μM and less than or equal to 10 μM)
COC(=O)Cc1nc(-c2ccc(C)c(NC(=O)c3cnc4ccccn34)c2)no1 [Compound I-321]	500 to 5000	50 to 500	≤ 50	3.4	4.73 10^−6 cm/s		**** (a solubility less than or equal to 2 μM)
Cc1ccc(-c2noc(C34CC(F)(C3)C4)n2)cc1NC(=O)c1cnc2ccccn12 [Compound I-392]	500 to 5000	≤ 50	≤ 50	2.82	7.51 10^−6 cm/s		*** (a solubility greater than 2 μM and less than or equal to 10 μM)
Cc1ccc(-c2noc(C3CC(Oc4ccccc4)C3)n2)cc1NC(=O)c1cnc2ccccn12 (centres unmarked) [Compound I-347]	500 to 5000	50 to 500	≤ 50	1.28	0.17 10^−6 cm/s		**** (a solubility less than or equal to 2 μM)
Cc1ccc(-c2noc(C3CCC(=O)N3C)n2)cc1NC(=O)c1cnc2ccccn12 (racemic) [Compound I-326]	5000 to 30000	500 to 5000	50 to 500	28.3	1.07 10^−6 cm/s		* (a solubility greater than 50 μM)
COC(=O)N1CC(c2nc(-c3ccc(C)c(NC(=O)c4cnn5cc(Br)ccc45)c3)no2)C1 [Compound I-312]	500 to 5000	≤ 50	≤ 50	1.42	13.3 10^−6 cm/s		**** (a solubility less than or equal to 2 μM)
Cc1ccc(-c2noc(CC(=O)OCc3ccccc3)n2)cc1NC(=O)c1cnc2ccccn12 [Compound I-322]	5000 to 30000	50 to 500	≤ 50	2.7	1.38 10^−6 cm/s		**** (a solubility less than or equal to 2 μM)
Cc1ccc(-c2noc(-c3ccccn3)n2)cc1NC(=O)c1cnc2ccccn12 [Compound I-272]	500 to 5000	50 to 500	≤ 50	3.4	6.58 10^−6 cm/s		**** (a solubility less than or equal to 2 μM)
Cc1nc(-c2ccc(C)c(NC(=O)c3cnc4ccc(N)cn34)c2)no1 [Compound I-219]	500 to 5000	50 to 500	≤ 50	37	0.79 10^−6 cm/s	≤ 50	*** (a solubility greater than 2 μM and less than or equal to 10 μM)
CCOC1CC(c2nc(-c3ccc(C)c(NC(=O)c4cnc5ccccn45)c3)no2)C1 (centres unmarked) [Compound I-309]	500 to 5000	50 to 500	≤ 50	1.07	11.3 10^−6 cm/s		*** (a solubility greater than 2 μM and less than or equal to 10 μM)
Cc1ccc(-c2noc(C34COC(C)(C3)C4)n2)cc1NC(=O)c1cnc2ccccn12 [Compound I-344]	500 to 5000	≤ 50	≤ 50	1.48	11.5 10^−6 cm/s		*** (a solubility greater than 2 μM and less than or equal to 10 μM)

Further lines, with some results ahead:

IC50 [1] [nM]	IC50 [2] [nM]	IC50 [3] [nM]	MDCK-BCRP: Efflux Ratio [4]	MDCK-BCRP: Papp A-B [4]	IC50 [6] [nM]	Compound	Solubility (μM) [5]
500 to 5000	50 to 500	≤ 50	1.35	8.71 10^−6 cm/s		Cc1ccc(-c2noc(CC3CCCOC3)n2)cc1NC(=O)c1cnc2ccccn12 (racemic) [Compound I-362]	*** (a solubility greater than 2 μM and less than or equal to 10 μM)
500 to 5000	50 to 500	≤ 50	2.37	0.13 10^−6 cm/s		Cc1ccc(-c2noc(C3CC(Oc4ccccc4)C3)n2)cc1NC(=O)c1cnc2ccccn12 (centres unmarked) [Compound I-348]	*** (a solubility greater than 2 μM and less than or equal to 10 μM)
50 to 500	≤ 50	≤ 50	22.9	1.08 10^−6 cm/s	50 to 500	COC(=O)N1CC(c2nc(-c3ccc(C)c(NC(=O)c4cnc5cc(OC(C)(C)CO)ccn45)c3)no2)C1 [Compound I-228]	** (a solubility greater than 10 μM and less than or equal to 50 μM)
50 to 500	50 to 500	≤ 50	1.09	15 10^−6 cm/s		COC12CC(c3nc(-c4ccc(C)c(NC(=O)c5cnc6ccccn56)c4)no3)(C1)C2 [Compound I-368]	**** (a solubility less than or equal to 2 μM)
50 to 500	≤ 50	≤ 50	1.39	11.4 10^−6 cm/s		COC1(C(F)F)CC(c2nc(-c3ccc(C)c(NC(=O)c4cnc5ccccn45)c3)no2)C1 (centres unmarked) [Compound I-325]	**** (a solubility less than or equal to 2 μM)
50 to 500	≤ 50	≤ 50	1.74	7.55 10^−6 cm/s		Cc1ccc(-c2noc([C@H]3C[C@@H]3F)n2)cc1NC(=O)c1cnc2cc(Br)ccn12 [Compound I-383]	**** (a solubility less than or equal to 2 μM)
50 to 500	≤ 50	≤ 50	0.54	1.1 10^−6 cm/s		Cc1ccc(-c2noc([C@H]3C[C@@H]3F)n2)cc1NC(=O)c1cnc2ccc(N3CCCC3)cn12 [Compound I-361]	**** (a solubility less than or equal to 2 μM)
50 to 500	≤ 50	≤ 50	16	1.75 10^−6 cm/s		Cc1ccc(-c2noc(C3(CO)CC(F)(F)C3)n2)cc1NC(=O)c1cnc2ccccn12 [Compound I-320]	*** (a solubility greater than 2 μM and less than or equal to 10 μM)
≤ 50	≤ 50	≤ 50	1.21	4.73 10^−6 cm/s		Cc1ccc(-c2noc([C@H]3C[C@@H]3F)n2)cc1NC(=O)c1cnc2cc(N3CCCC3)ccn12 [Compound I-365]	*** (a solubility greater than 2 μM and less than or equal to 10 μM)
